Source: patent US20210038559A1, “CANNABINOIDS AND DERIVATIVES FOR PROMOTING IMMUNOGENICITY OF TUMOR AND INFECTED CELLS” (priority 2018, published 2021)
Where two headings read alike, the source gives them in different places.

Test system: MHC-I expression by COLO 205 cells
Experiment: cells
Assay type: cell-based, human
Conditions: for fold induction at 35 µM: Homo sapiens, COLO 205, 48 h, read-out: Induction Fold
Protocol: A panel of synthetic cannabinoids (Cayman Chemical, #9002891) was tested for MHC class I-inducing capability in COLO 205 cells as described above. COLO 205 cells were treated with the compounds at a concentration of 35 μM and evaluated for cell surface MHC class I expression after 48 hours. Cells were harvested, stained with MHC-I mAb W6/32 (Thermo Fisher). MHC-I expression was determined by flow cytometry.

[1] = MHC-I expression, COLO 205 cells, compounds at 35 μM, 48 hours, flow cytometry (W6/32)

| Compound | fold induction at 35 µM [1] | also measured |
| --- | --- | --- |
| CCCCCn1cc(C(=O)Oc2cccc3ncccc23)c2ccccc21 [Example 131, quinolin-5-yl 1-pentyl-1H-indole-3-carboxylate] | 2.26 |  |
| C/C(=C\C(=O)c1cn(CCN2CCOCC2)c2ccccc12)C(C)(C)C [Example 132, (E)-3,4,4-trimethyl-1-(1-(2-morpholinoethyl)-1H-indol-3-yl)pent-2-en-1-one] | 2.25 |  |
| CCC(F)CCn1cc(C(=O)C2C(C)(C)C2(C)C)c2ccccc21 (stereo not drawn) [Example 133, [1-(3-fluoropentyl)-1H-indol-3-yl] (2,2,3,3-tetramethylcyclopropyl)-methanone] | 2.23 |  |
| O=C(c1cccc2ccccc12)c1nn(CCCCCF)c2ccccc12 [Example 134, [1-(5-fluoropentyl)-1H-indazol-3-yl]-1-naphthalenyl-methanone] |  | Induction Fold: 2.23 Fold |
| O=C(Oc1cnc2ccccc2c1)c1cn(CCCCCF)c2ccccc12 [Example 136, quinolin-3-yl 1-(5-fluoropentyl)-1H-indole-3-carboxylate] | 2.22 |  |
| CC1(C)C(C(=O)c2cn(CCCCCCl)c3ccccc23)C1(C)C [Example 138, (1-(5-chloropentyl)-1H-indol-3-yl)(2,2,3,3-tetramethylcyclopropyl)methanone] | 2.21 |  |
| O=C(c1ccc2ccccc2c1)c1cn(CCCCCF)c2ccccc12 [Example 139, (1-(5-fluoropentyl)-1H-indol-3-yl)(naphthalen-2-yl)methanone] | 2.19 |  |
| CCCCCn1cc(C(=O)Nc2cccc3cccnc23)c2ccccc21 [Example 141, 1-pentyl-N-8-quinolinyl-1H-indole-3-carboxamide] | 2.19 |  |
| O=C(c1cccc2ccccc12)c1nn(CCCCCCl)c2ccccc12 [Example 142, (1-(5-chloropentyl)-1H-indazol-3-yl)(naphthalen-1-yl)methanone] | 2.19 |  |
| CC(C)[C@H](NC(=O)c1nn(Cc2ccccc2F)c2ccccc12)C(N)=O [Example 143, N-[(1S)-1-(aminocarbonyl)-2-methylpropyl]-1-[(2-fluorophenyl)methyl]-1H-indazole-3-carboxamide] | 2.19 |  |
| O=C(NC12CC3CC(CC(C3)C1)C2)c1cn(CCCCCF)c2ccccc12 [Example 144, 1-(5-fluoropentyl)-N-tricyclo[3.3.1.13,7] dec-1-yl-1H-indole-3-carboxamide] | 2.17 |  |
| Cc1ccc(C(=O)c2cn(CCCC(C)F)c3ccccc23)c2ccccc12 (stereo not drawn) [Example 145, (1-(4-fluoropentyl)-1H-indol-3-yl)(4-methylnaphthalen-1-yl)methanone] | 2.16 |  |
| CCCCCn1cc(C(=O)c2cccc3ccc(Cl)cc23)c2ccccc21 [Example 146, (7-chloronaphthalen-1-yl)(1-pentyl-1H-indol-3-yl)methanone] | 2.16 |  |
| CC1(C)C(C(=O)c2cn(CCN3CCOCC3)c3ccccc23)C1(C)C [Example 147, [1-[2-(4-morpholinyl)ethyl]-1H-indol-3-yl](2,2,3,3-tetramethylcyclopropyl)-methanone] | 2.14 |  |
| C=CCCCn1cc(C(=O)C2C(C)(C)C2(C)C)c2ccccc21 [Example 148, (1-(pent-4-en-1-yl)-1H-indol-3-yl)(2,2,3,3-tetramethylcyclopropyl)methanone] | 2.14 |  |
| CCCCCn1nc(C(=O)c2cccc3ccccc23)c2ccccc21 [Example 149, 1-naphthalenyl(1-pentyl-1H-indazol-3-yl)-methanone] |  | Induction Fold [1]: 2.14 Fold |
| CCCCCn1cc(C(=O)c2ccc(F)c3ccccc23)c2ccccc21 [Example 150, (4-fluoro-1-naphthalenyl)(1-pentyl-1H-indol-3-yl)-methanone] | 2.14 |  |
| CCCCCOc1ccc(C(=O)c2cccc3ccccc23)c2ccccc12 [Example 152, 1-naphthalenyl[4-(pentoxy)-1-naphthalenyl]-methanone] |  | Induction Fold: 2.12 Fold |
| CCCC(F)Cn1cc(C(=O)C2C(C)(C)C2(C)C)c2ccccc21 (stereo not drawn) [Example 153, [1-(2-fluoropentyl)-1H-indol-3-yl] (2,2,3,3-tetramethylcyclopropyl)-methanone] | 2.11 |  |
| Cc1ccc(C(=O)c2cn(CCCCCF)c3ccccc23)c2ccccc12 [Example 155, [1-(5-fluoropentyl)-1H-indol-3-yl](4-methyl-1-naphthalenyl)-methanone] | 2.08 |  |
| O=C(c1cccc2ccccc12)c1cn(CCCC2CO2)c2ccccc12 (stereo not drawn) [Example 156, naphthalen-1-yl(1-(3-(oxiran-2-yl)propyl)-1H-indol-3-yl)methanone] | 2.07 |  |
| CCCC(Cl)Cn1cc(C(=O)C2C(C)(C)C2(C)C)c2ccccc21 (stereo not drawn) [Example 157, (1-(2-chloropentyl)-1H-indol-3-yl)(2,2,3,3-tetramethylcyclopropyl)methanone] | 2.07 |  |
| O=C(Oc1cccc2ncccc12)c1cn(CCCCCF)c2ccccc12 [Example 158, quinolin-5-yl 1-(5-fluoropentyl)-1H-indole-3-carboxylate] | 2.07 |  |

| Compound | fold induction at 35 µM [1] | also measured |
| --- | --- | --- |
| CCCCCCC(C)(C)c1cc(O)cc(OCCCCCCCC(=O)NC2CC2)c1 [Example 159, N-cyclopropyl-8-[3-(1,1-dimethylheptyl)-5-hydroxyphenoxy]-octanamide] | 2.06 |  |
| O=C(c1cn(CCCCCF)c2ccccc12)C12CC3CC(CC(C3)C1)C2 [Example 160, [1-(5-fluoropentyl)-1H-indol-3-yl]tricyclo[3.3.1.13,7]dec-1-yl-methanone] | 2.06 |  |
| CCCCCn1cc(C(=O)c2cccc3ccc(C)cc23)c2ccccc21 [Example 161, (7-methyl-1-naphthalenyl)(1-pentyl-1H-indol-3-yl)-methanone] | 2.06 |  |
| O=C(Oc1cccc2cnccc12)c1cn(CC2CCCCC2)c2ccccc12 [Example 162, isoquinolin-5-yl 1-(cyclohexylmethyl)-1H-indole-3-carboxylate] | 2.04 |  |
| CCCCCn1cc(C(=O)c2cccc3ccc(OC)cc23)c2ccccc21 [Example 163, (7-methoxy-1-naphthalenyl)(1-pentyl-1H-indol-3-yl)-methanone] | 2.04 |  |
| CCCCCn1cc(C(=O)c2ccc(CCC)c3ccccc23)c2ccccc21 [Example 164, (1-pentyl-1H-indol-3-yl)(4-propyl-1-naphthalenyl)-methanone] | 2.03 |  |
| CCCCCn1cc(C(=O)Cc2cccc(C)c2)c2ccccc21 [Example 165, 1-(1-pentyl-1H-indol-3-yl)-2-(m-tolyl)ethanone] | 2.02 |  |
| O=C(Nc1cccc2cccnc12)c1nn(CCCCCF)c2ccccc12 [Example 166, 1-(5-fluoropentyl)-N-(quinolin-8-yl)-1H-indazole-3-carboxamide] | 2.01 |  |
| O=C(Oc1cccc2ccccc12)c1nn(CCCCCF)c2ccccc12 [Example 167, naphthalen-1-yl 1-(5-fluoropentyl)-1H-indazole-3-carboxylate] | 2.01 |  |
| CC(C)(C)Cn1cc(C(=O)c2ccc3ccccc3c2)c2ccccc21 [Example 168, [1-(2,2-dimethylpropyl)-1H-indol-3-yl]-2-naphthalenyl-methanone] | 2.01 |  |
| CC(C)[C@H](NC(=O)c1nn(CCCCCCl)c2ccccc12)C(N)=O [Example 170, N-[(1S)-1-(aminocarbonyl)-2-methylpropyl]-1-(5-chloropentyl)-1H-indazole-3-carboxamide] | 2.01 |  |
| CCCCCn1nc(C(=O)Oc2cccc3ccccc23)c2ccccc21 [Example 171, naphthalen-1-yl 1-pentyl-1H-indazole-3-carboxylate] | 1.99 |  |
| CC(C)[C@H](NC(=O)c1nn(Cc2ccc(F)cc2)c2ccccc12)C(N)=O [Example 172, N-[(1S)-1-(aminocarbonyl)-2-methylpropyl]-1-[(4-fluorophenyl)methyl]-1H-indazole-3-carboxamide] | 1.99 |  |
| CCC(F)CCCn1cc(C(=O)c2cccc3ccccc23)c2ccccc21 (stereo not drawn) [Example 173, (1-(4-fluorohexyl)-1H-indol-3-yl)(naphthalen-1-yl)methanone] | 1.98 |  |
| CCC(F)CCn1cc(C(=O)c2ccc(C)c3ccccc23)c2ccccc21 (stereo not drawn) [Example 174, (1-(3-fluoropentyl)-1H-indol-3-yl)(4-methylnaphthalen-1-yl)methanone] | 1.96 |  |
| CCCCCn1cc(C(=O)c2cccc3ccccc23)c2ccc(OC)cc21 [Example 175, (6-methoxy-1-pentyl-1H-indol-3-yl)(naphthalen-1-yl)-methanone] | 1.95 |  |
| CCCC(F)CCn1cc(C(=O)c2cccc3ccccc23)c2ccccc21 (stereo not drawn) [Example 176, (1-(3-fluorohexyl)-1H-indol-3-yl)(naphthalen-1-yl)methanone] | 1.95 |  |
| O=C(c1cccc2ccccc12)c1cn(CCCCCCl)c2ccccc12 [Example 177, (1-(5-chloropentyl)-1H-indol-3-yl)(naphthalen-1-yl)methanone] | 1.94 |  |
| CCCCCn1cccc1C(=O)c1cccc2ccccc12 [Example 178, naphthalen-1-yl(1-pentyl-1H-pyrrol-2-yl)methanone] | 1.94 |  |
| COC(=O)[C@H](NC(=O)c1nn(CCCCCF)c2ccccc12)C(C)(C)C [Example 179, N-[[1-(5-fluoropentyl)-1H-indazol-3-yl]carbonyl]-3-methyl-D-valine, methyl ester] |  | Induction Fold [1]: 1.94 Fold |
| CCCCCn1cc(C(=O)c2ccc(CC)c3ccccc23)c2ccccc21 [Example 180, (4-ethyl-1-naphthalenyl)(1-pentyl-1H-indol-3-yl)-methanone] | 1.93 |  |
| CCCCCn1cc(C(=O)Cc2ccc(C)cc2)c2ccccc21 [Example 181, 2-(4-methylphenyl)-1-(1-pentyl-1H-indol-3-yl)-ethanone] | 1.93 |  |
